Laboratory results from PubChem BioAssay (NCI).
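Grown in 96-well plates, cells were treated for 48 hours with each compound at five concentrations. Insufficient inhibition: endpoint recorded as highest concentration tested. GI50 = concentration required for 50% inhibition of growth. TGI marks complete inhibition of growth.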

Legend:
Experiment in all cases: DTP human tumour cell line panel, 48 h
HL-60(TB) leukemia = test system: HL-60(TB) leukemia
HOP-62 NSCLC = test system: HOP-62 NSCLC
HOP-92 NSCLC = test system: HOP-92 NSCLC
IGROV1 ovarian = test system: IGROV1 ovarian
NCI-H23 lung = test system: NCI-H23 lung
RPMI-8226 leukemia = test system: RPMI-8226 leukemia
SF-295 CNS = test system: SF-295 CNS
PC-3 prostate = test system: PC-3 prostate
CCRF-CEM leukemia = test system: CCRF-CEM leukemia
MCF7 breast = test system: MCF7 breast

Row | SMILES | TGI (HL-60(TB) leukemia) | TGI (HOP-62 NSCLC) | TGI (HOP-92 NSCLC) | TGI (IGROV1 ovarian) | TGI (NCI-H23 lung) | TGI (RPMI-8226 leukemia) | TGI (SF-295 CNS) | GI50 (HL-60(TB) leukemia) | GI50 (HOP-62 NSCLC) | GI50 (HOP-92 NSCLC) | GI50 (IGROV1 ovarian) | GI50 (NCI-H23 lung) | GI50 (PC-3 prostate) | TGI (PC-3 prostate) | GI50 (SF-295 CNS) | TGI (CCRF-CEM leukemia) | GI50 (CCRF-CEM leukemia) | GI50 (MCF7 breast) | TGI (MCF7 breast) | GI50 (RPMI-8226 leukemia)
1 | CN(C)C(=O)OC(Cn1cncn1)c1ccc(Cl)cc1Cl (stereo not given) | > 100 µM | > 100 µM | > 100 µM | > 100 µM | > 100 µM | > 100 µM | > 100 µM | – | – | – | – | – | – | – | – | – | – | – | – | –
2 | CCCCCCCCN=C(N)c1ccc(N2CCN(c3ccc(C(N)=NCCCCCCCC)cc3)CC2)cc1 | 4.66 µM | 15 µM | > 50 µM | > 50 µM | 6.49 µM | – | 2.79 µM | 1.17 µM | 7.14 µM | 14.9 µM | 1.62 µM | 1.52 µM | 22.7 µM | > 50 µM | 1.1 µM | – | – | – | – | –
3 | NNC(=O)/C(=C/c1ccc(Cl)cc1Cl)NC(=O)c1ccccc1 | > 100 µM | > 100 µM | > 100 µM | > 100 µM | > 100 µM | > 100 µM | > 100 µM | – | – | – | – | – | – | – | – | > 100 µM | – | – | – | –
4 | Cc1ccc(C(=O)c2nnc(C(=O)c3ccc(C)cc3)nn2)cc1 | 48.2 µM | > 100 µM | > 100 µM | > 100 µM | > 100 µM | > 100 µM | > 100 µM | – | – | – | – | – | – | – | – | 50.8 µM | – | – | – | –
5 | COc1ccc(/C=C2\CCCC3=C2N=C2SC(C)=NN2C3c2ccc(OC)c(OC)c2)cc1OC (stereo not given) | 36 µM | > 100 µM | 52 µM | 93.8 µM | > 100 µM | – | > 100 µM | 3.97 µM | 19.8 µM | 10.6 µM | 18.4 µM | 8.2 µM | 25.8 µM | > 100 µM | 14.8 µM | > 100 µM | 2.91 µM | 3.04 µM | > 100 µM | –
6 | CC1(C)C(=NNC(=O)C[N+](C)(C)C)C(C)(C)C1=NNC(=O)C[N+](C)(C)C | > 100 µM | > 100 µM | > 100 µM | > 100 µM | > 100 µM | – | > 100 µM | – | – | – | – | – | – | – | – | > 100 µM | – | – | – | –
7 | C[C@@H]1C[C@H]2CC[C@H](O2)[C@H](C)C(=O)O[C@@H](C)C[C@@H]2CC[C@@H](O2)[C@@H](C)C(=O)O[C@H](C)C[C@H]2CC[C@H](O2)[C@H](C)C(=O)O[C@@H](C)C[C@@H]2CC[C@@H](O2)[C@@H](C)C(=O)O1 | 0.536 µM | 4.78 µM | 0.524 µM | 32.4 µM | – | – | 0.659 µM | – | – | – | – | – | – | 2.46 µM | – | 16.2 µM | – | – | > 100 µM | –
8 | Cc1c(C(=O)C/C(=N\O)C(=O)Nc2cc(Cl)c(Cl)cc2Cl)[n+](=O)c2ccccc2n1[O-] | > 100 µM | > 100 µM | 46.2 µM | 20.9 µM | 65.6 µM | 38.4 µM | 53.5 µM | – | – | – | – | – | – | – | – | > 100 µM | – | – | – | –
9 | O=C(CN1CCOCC1)Nc1nc(-c2ccc(Cl)cc2)cs1 | 44.9 µM | 73.1 µM | > 100 µM | > 100 µM | 40.1 µM | 53.7 µM | > 100 µM | – | – | – | – | – | – | – | – | 63.9 µM | – | – | – | –
10 | N#Cc1c(N2CCCC2)[nH]c(=O)c(C(c2c(Cl)cccc2Cl)c2c(O)c(C#N)c(N3CCCC3)[nH]c2=O)c1O | – | 49.6 µM | 28.5 µM | 56.5 µM | 31 µM | 18.4 µM | 37.4 µM | – | 21.2 µM | 10.2 µM | 19 µM | 11.6 µM | 14.5 µM | 28.3 µM | 18.7 µM | 5.06 µM | 1.91 µM | 14.2 µM | 49.8 µM | 2.54 µM
11 | CSc1ccc(C2OC(=O)c3ccccc32)c2ccccc12 (stereo not given) | > 100 µM | > 100 µM | > 100 µM | > 100 µM | – | > 100 µM | > 100 µM | – | – | – | – | – | – | – | – | > 100 µM | – | – | – | –
12 | C/C(=N\NS(=O)(=O)c1ccccc1)c1ccc(Cl)c(Cl)c1 | > 100 µM | > 100 µM | > 100 µM | > 100 µM | > 100 µM | > 100 µM | > 100 µM | – | – | – | – | – | – | – | – | > 100 µM | – | – | – | –
13 | CCCCCCCCCCCC(=O)OCC1OC(n2cc(F)c(=O)[nH]c2=O)C(NC(=O)OCc2ccccc2)C(OC(=O)CCCCCCCCCCC)C1O (stereo not given) | – | > 100 µM | > 100 µM | > 100 µM | > 100 µM | > 100 µM | > 100 µM | – | – | – | – | – | – | – | – | > 100 µM | – | – | – | –
14 | Cn1cc(-c2ccc3occ(-c4cccc(-c5ccncc5)c4)c3n2)cn1 | – | > 100 µM | > 100 µM | > 100 µM | > 100 µM | – | > 100 µM | – | 0.815 µM | 2.76 µM | 0.592 µM | 1.26 µM | 0.961 µM | > 100 µM | 0.809 µM | > 100 µM | 0.923 µM | 0.419 µM | > 100 µM | –
15 | NC1C[C@H](n2cc(/C=C/Br)c(=O)[nH]c2=O)C[C@@H]1CO (stereo not given in full) | > 100 µM | > 100 µM | – | – | > 100 µM | > 100 µM | > 100 µM | – | – | – | – | – | – | – | – | > 100 µM | – | – | – | –
16 | CCCCC(CC)CN=C(N)NC(N)=NCCCCCCN=C(N)NC(N)=NCC(CC)CCCC (stereo not given) | 3.97 µM | – | – | – | – | – | – | 2.07 µM | – | – | – | – | – | – | – | – | – | – | – | –
17 | Nc1ccn(CCNCCn2cnc3nc(N)[nH]c(=O)c32)c(=O)n1 | > 100 µM | > 100 µM | > 100 µM | > 100 µM | > 100 µM | > 100 µM | > 100 µM | – | – | – | – | – | – | – | – | – | – | – | – | –
18 | CCN(CC)c1ccc(C(=O)c2ccccc2C(=O)O)c(O)c1 | > 100 µM | > 100 µM | > 100 µM | > 100 µM | > 100 µM | > 100 µM | > 100 µM | – | – | – | – | – | – | – | – | > 100 µM | – | – | – | –
19 | COc1ccc2nc(-c3cccs3)cc(C(O)CN3CCSCC3)c2c1 (stereo not given) | 5.8 µM | 65.8 µM | 62.1 µM | > 100 µM | 55.4 µM | 43 µM | > 100 µM | – | – | – | – | – | – | – | – | 44.9 µM | – | – | – | –
20 | CN(C)CCCNC(CC#N)CCC#N (stereo not given) | > 10 µM | > 10 µM | > 10 µM | > 10 µM | > 10 µM | – | > 10 µM | – | – | – | – | – | – | > 10 µM | – | > 10 µM | – | – | > 10 µM | –
21 | COC(=O)C(=O)C1(CCC(C)=O)c2ccccc2-c2c(C)ccc(C)c21 (stereo not given) | 32.1 µM | > 100 µM | – | > 100 µM | > 100 µM | 78.6 µM | > 100 µM | – | – | – | – | – | – | – | – | > 100 µM | – | – | – | –
22 | CC1SC2=NC3=C(c4ccccc4C3=O)C(c3ccc(F)cc3)N2C1=O (stereo not given) | > 100 µM | > 100 µM | > 100 µM | > 100 µM | > 100 µM | > 100 µM | > 100 µM | – | – | – | – | – | – | – | – | > 100 µM | – | – | – | –
23 | O=C(N/C(=C\c1ccc2c(c1)OCO2)c1nc2ccccc2[nH]1)c1ccccc1 | 37.4 µM | > 73.4 µM | 58.7 µM | 77.3 µM | 53.4 µM | 83.9 µM | > 100 µM | – | – | – | – | – | – | – | – | > 89.2 µM | – | – | – | –
